Here are results for 16 molecules from ChEMBL document CHEMBL4382195, “Discovery of Novel Topoisomerase II Inhibitors by Medicinal Chemistry Approaches” (J Med Chem, 2018).

DNA topoisomerase 2-beta, sequence (Q02880 whole entry): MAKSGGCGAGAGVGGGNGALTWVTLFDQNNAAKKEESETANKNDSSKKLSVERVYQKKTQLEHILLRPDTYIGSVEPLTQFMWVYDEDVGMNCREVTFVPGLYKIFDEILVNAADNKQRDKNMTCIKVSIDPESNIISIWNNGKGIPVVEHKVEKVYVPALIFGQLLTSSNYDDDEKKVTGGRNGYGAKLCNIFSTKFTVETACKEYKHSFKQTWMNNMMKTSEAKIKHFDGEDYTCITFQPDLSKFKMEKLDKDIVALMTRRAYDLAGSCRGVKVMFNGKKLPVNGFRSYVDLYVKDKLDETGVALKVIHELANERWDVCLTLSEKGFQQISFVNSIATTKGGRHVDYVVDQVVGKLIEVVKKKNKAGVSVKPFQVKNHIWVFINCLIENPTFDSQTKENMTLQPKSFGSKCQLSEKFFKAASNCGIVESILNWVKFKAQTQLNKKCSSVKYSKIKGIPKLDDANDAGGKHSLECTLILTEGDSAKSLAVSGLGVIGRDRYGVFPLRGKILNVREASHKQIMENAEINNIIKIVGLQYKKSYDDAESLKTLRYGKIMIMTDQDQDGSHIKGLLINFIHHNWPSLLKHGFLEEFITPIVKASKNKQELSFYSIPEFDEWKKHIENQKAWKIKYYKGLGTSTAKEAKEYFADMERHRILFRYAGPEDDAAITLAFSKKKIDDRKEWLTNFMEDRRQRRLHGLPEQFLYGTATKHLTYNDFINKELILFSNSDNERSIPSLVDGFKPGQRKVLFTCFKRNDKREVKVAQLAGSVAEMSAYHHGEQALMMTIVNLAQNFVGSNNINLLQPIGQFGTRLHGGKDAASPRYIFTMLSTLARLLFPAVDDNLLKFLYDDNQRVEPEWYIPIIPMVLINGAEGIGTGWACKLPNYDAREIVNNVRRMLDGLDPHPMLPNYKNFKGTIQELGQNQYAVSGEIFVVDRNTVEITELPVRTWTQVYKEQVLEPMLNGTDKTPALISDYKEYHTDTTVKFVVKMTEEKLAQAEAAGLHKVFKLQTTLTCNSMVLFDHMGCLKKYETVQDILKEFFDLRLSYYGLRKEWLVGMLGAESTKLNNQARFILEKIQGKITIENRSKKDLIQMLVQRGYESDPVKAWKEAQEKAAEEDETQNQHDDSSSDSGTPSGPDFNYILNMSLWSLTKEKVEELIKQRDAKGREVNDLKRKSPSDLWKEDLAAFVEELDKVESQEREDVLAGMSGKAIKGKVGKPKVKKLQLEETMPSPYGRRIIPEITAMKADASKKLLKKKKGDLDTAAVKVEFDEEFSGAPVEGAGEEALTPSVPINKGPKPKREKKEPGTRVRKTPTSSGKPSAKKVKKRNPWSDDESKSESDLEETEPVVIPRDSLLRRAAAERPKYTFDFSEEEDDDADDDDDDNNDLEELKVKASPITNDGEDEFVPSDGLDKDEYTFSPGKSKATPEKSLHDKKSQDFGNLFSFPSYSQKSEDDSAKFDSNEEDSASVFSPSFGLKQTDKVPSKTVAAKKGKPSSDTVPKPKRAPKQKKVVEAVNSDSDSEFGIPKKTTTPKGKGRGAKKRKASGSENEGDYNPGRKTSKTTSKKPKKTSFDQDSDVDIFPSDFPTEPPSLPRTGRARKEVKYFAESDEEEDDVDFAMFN
DNA topoisomerase 2-alpha, sequence (P11388 whole entry): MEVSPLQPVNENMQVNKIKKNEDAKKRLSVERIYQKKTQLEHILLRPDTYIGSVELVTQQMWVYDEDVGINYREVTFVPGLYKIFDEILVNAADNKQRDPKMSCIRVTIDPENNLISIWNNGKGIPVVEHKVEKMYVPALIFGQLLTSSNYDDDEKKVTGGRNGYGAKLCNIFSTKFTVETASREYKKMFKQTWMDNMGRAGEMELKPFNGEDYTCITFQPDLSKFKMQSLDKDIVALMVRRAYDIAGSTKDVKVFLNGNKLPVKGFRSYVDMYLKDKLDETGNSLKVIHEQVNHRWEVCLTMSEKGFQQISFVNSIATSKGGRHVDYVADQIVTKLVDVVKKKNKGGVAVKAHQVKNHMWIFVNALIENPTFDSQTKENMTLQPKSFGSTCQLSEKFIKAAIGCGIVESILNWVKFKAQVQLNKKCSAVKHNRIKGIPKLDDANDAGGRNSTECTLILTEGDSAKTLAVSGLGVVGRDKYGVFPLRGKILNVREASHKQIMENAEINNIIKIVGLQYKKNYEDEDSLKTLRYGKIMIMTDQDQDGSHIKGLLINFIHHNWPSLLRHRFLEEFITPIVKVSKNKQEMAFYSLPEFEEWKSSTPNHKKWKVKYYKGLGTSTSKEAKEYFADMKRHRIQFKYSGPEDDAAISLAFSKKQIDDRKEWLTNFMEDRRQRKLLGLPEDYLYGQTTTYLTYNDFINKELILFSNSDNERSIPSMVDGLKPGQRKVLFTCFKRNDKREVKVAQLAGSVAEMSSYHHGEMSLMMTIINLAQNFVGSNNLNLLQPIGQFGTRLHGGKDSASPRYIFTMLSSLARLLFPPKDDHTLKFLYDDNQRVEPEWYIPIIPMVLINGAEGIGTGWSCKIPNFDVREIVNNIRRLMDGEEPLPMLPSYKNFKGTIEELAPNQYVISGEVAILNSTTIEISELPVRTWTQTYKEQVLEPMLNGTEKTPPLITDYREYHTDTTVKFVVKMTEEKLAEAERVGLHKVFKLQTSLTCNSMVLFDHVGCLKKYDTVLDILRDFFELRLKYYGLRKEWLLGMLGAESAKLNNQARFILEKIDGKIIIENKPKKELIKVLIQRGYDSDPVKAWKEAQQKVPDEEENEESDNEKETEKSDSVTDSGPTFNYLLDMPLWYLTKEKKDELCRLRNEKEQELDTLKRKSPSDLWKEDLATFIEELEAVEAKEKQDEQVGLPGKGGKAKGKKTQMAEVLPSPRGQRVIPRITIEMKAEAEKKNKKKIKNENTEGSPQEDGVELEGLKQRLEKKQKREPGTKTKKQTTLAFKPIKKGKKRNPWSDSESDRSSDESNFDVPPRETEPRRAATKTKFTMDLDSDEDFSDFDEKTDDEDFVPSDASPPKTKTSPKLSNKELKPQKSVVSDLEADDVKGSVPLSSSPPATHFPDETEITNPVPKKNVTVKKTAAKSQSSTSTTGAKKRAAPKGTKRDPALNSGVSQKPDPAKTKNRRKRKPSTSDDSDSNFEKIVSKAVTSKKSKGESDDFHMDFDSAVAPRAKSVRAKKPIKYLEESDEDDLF

The first assay concerns the target DNA topoisomerase 2-beta (Homo sapiens, UniProt Q02880). In words: Poison activity at recombinant human topoisomerase 2beta using pBR322 plasmid as substrate after 30 mins by ethidium bromide staining based agarose gel electrophoresis.
Details: not given
By IC50 is commonly meant the concentration that gives 50% inhibition. With `CN(C)CCCNc1ccc(NCCCN(C)C)c2c1C(=O)c1ccc(C(=O)Nc3ccc(S(C)(=O)=O)cc3)cc1C2=O`, the IC50 lay within 4.34 to 6.71 µM.

Turning to `COc1cc(S(C)(=O)=O)ccc1NC(=O)c1ccc2c(c1)C(=O)c1c(NCCCN(C)C)ccc(NCCCN(C)C)c1C2=O`, the IC50 was 1.06 to 3.33 µM.

As to `O=C1c2ccccc2C(=O)c2c(NCCNCCO)ccc(NCCNCCO)c21` [AMETANTRONE], the half-maximal inhibitory concentration (IC50) was in the range of 0.03 to 0.99 µM.

On to `CN(C)CCNc1ccc(NCCN(C)C)c2c1C(=O)c1ccc(C(=O)Nc3ccc(S(C)(=O)=O)cc3)cc1C2=O`, for which the IC50 is 5.25 to 9.31 µM.

The next assay deals with MDA-MB-231. The assay is described as follows: Antiproliferative activity against human MDA-MB-231 cells after 24 hrs by MTT assay. The format is functional, cell-based. The note with it: MDA-MB-231, 24 h. A general note: Tetrazolium assays rely on reduction of a dye to a coloured formazan, in cell work by metabolically active cells.
In turn, `Fc1ccc(Nc2nnc(COc3ccc(Cl)cc3Cl)s2)cc1` yielded an IC50 above 200 µM.

Regarding `Clc1ccc(-c2nnc(Nc3ccc(Br)cc3)s2)c(Cl)c1`, the IC50 came to 70 µM.

`Clc1ccc(OCc2nnc(Nc3ccc(Br)cc3)s2)c(Cl)c1` yielded an IC50 above 200 µM.

In turn, `Oc1cccc(-c2nnc(Nc3cccc(F)c3)s2)c1` displayed an IC50 of 170 µM.

In turn, `Fc1cccc(Nc2nnc(-c3cccc(Cl)c3)s2)c1` returned an IC50 above 200 µM.

The molecule `Fc1ccc(Nc2nnc(-c3ccc(Cl)cc3Cl)s2)cc1` yielded a half-maximal inhibitory concentration (IC50) of 130 µM.

A further assay relates to MCF7. The assay is described as follows: Antiproliferative activity against human MCF7 cells after 24 hrs by MTT assay. The format is functional, cell-based. The note with it: MCF7, 24 h.
Molecule `Fc1ccc(Nc2nnc(COc3ccc(Cl)cc3Cl)s2)cc1` came in with an IC50 above 200 µM.

`Clc1ccc(-c2nnc(Nc3ccc(Br)cc3)s2)c(Cl)c1` came in with a concentration for half-maximal inhibition (IC50) of 120 µM.

Turning to `Clc1ccc(OCc2nnc(Nc3ccc(Br)cc3)s2)c(Cl)c1`, the IC50 is above 200 µM.

The molecule `Oc1cccc(-c2nnc(Nc3cccc(F)c3)s2)c1` yielded an IC50 of 140 µM.

Take `Fc1cccc(Nc2nnc(-c3cccc(Cl)c3)s2)c1`: the 50% inhibitory concentration (IC50) is above 200 µM.

`Fc1ccc(Nc2nnc(-c3ccc(Cl)cc3Cl)s2)cc1` returned an IC50 of 160 µM.

Another assay concerns Panel NCI-60 (60 carcinoma cell lines). The assay is described as follows: Antiproliferative activity against human NCI60 cells after 48 hrs by SRB assay. The format is functional.
Details: not given
In general terms: In SRB staining, fixed cells bind dye roughly in proportion to their protein.
For orientation: GI50 means the concentration at which growth is held to half of that of the control. Higher therefore signals less potent growth inhibition. With `COc1cc([C@@H]2c3cc4c(cc3[C@@H](O[C@@H]3O[C@@H]5CO[C@@H](C)O[C@H]5[C@H](O)[C@H]3O)[C@H]3COC(=O)[C@H]23)OCO4)cc(OC)c1O` [ETOPOSIDE], growth was halved (GI50) at 12 µM.

`O=C(O)CCCc1ccc(N(CCCl)CCCl)cc1` [CHLORAMBUCIL] yielded a GI50 of 60 µM.

In the case of `Cn1c(CCCC(=O)O)nc2cc(N(CCCl)CCCl)ccc21` [BENDAMUSTINE], the GI50 turned out to be 70 µM.

Consider `N[C@@H](Cc1ccc(N(CCCl)CCCl)cc1)C(=O)O`, for which the GI50 turned out to be 29 µM.

Another assay addresses DNA topoisomerase 2-alpha (Homo sapiens, UniProt P11388). In words: Inhibition of recombinant human topoisomerase 2alpha using supercoiled pNO1 plasmid as substrate after 30 mins by SYBR-GOLD staining based fluorimetric analysis.
Details: not given
As for `O=C(O)c1cccc(Nc2ncnc3[nH]cnc23)c1`, the IC50 worked out at 65 µM.

For `O=C(O)c1ccc(Nc2ncnc3nc[nH]c23)cc1`, the IC50 was 44 µM.
